Laboratory results taken from patent publication US6403639B1, “2,3-dihydrobenzofuran derivatives” (Chugai Seiyaku Kabushiki Kaisha, priority 1997, dated 2002).
Like-named read-outs stand apart in the source and are kept apart here.

Columns and labels:
[1] = test system: porcine kidney-derived LLC-PK1 cells; assay: Protective effect against cell injury of porcine kidney-derived LLC-PK1 cells (2), oxidized LDL-induced LDH leakage; assay type: cell-based
Protocol: The oxidized LDL was prepared by placing 1 mg/ml of rabbit LDL in PBS (−) in the presence of 10 μM CuSO4 at 37° C. for 24 hours. Cell cultures were prepared by inoculating 1.25×10^4 cells/250 μl/well on a 48-well plate using M199 medium containing 3% FBS. Test compounds were dissolved or suspended in ethanol and added at a ratio of 1.25 μl/well 16 hours before or immediately before addition of the oxidized LDL to a concentration of 0.1, 1 or 10 μM in each well. The oxidized LDL was diluted twice with physiological saline and then added to cells at 62.5 μl/well to a concentration of 100 μg/ml and the cells were incubated for 6 hours after addition of the oxidized LDL. After the incubation, 162.5 μl of the culture medium was collected from each of the wells and measured for the lactate dehydrogenase (LDH) activity (Lactate Dehydrogenase (LD-L): SIGNA DIAGNOSTICS) which has leaked into the culture medium.
(§1) The cytoprotective effect was expressed as a % cytoprotection where the effect in wells containing the oxidized LDL but without any test compound is 0% and the effect in wells containing physiological saline in place of the oxidized LDL is 100%.
For the purpose of evaluating in vitro cytoprotective effect of the compounds of the present invention, protective effect against cell injury of porcine kidney-derived LLC-PK1 cells (ATCC-CRL-13921) induced by oxidized low-density lipoprotein (oxidized LDL) was examined in the same manner as in Test example 1.
Preparation of oxidized LDL and conditions for cell culture and addition of test compounds were the same as those in Test example 1, except that the oxidized LDL was not diluted with physiological saline and added to cells at 25 μl/well to a concentration of 91 μg/ml and the cells were incubated for 6 hours after addition of oxidized LDL. After the incubation, 150 μl of the culture medium was collected from each of the wells and measured for the lactate dehydrogenase (LDH) activity (Lactate Dehydrogenase (LD-L): SIGMA DIAGNOSTICS) which has leaked in the culture medium.

[2] = test system: cultured mesangial cells; assay: Protective effect against cell injury of cultured mesangial cells, oxidized LDL-induced LDH leakage; assay type: cell-based, rats
Protocol: For the purpose of evaluating in vitro cytoprotective effect of the compounds of the present invention, protective effect against cell injury of cultured mesangial cells induced by oxidized low-density lipoprotein (LDL) was examined. The cells used were subcultures after 4 to 6 passages of the primary cultures of mesangial cells prepared from kidney of 4-week-old SD-strain male rats (Nippon Charles River Corp.).
The oxidized LDL was prepared by placing 1 mg/ml of rabbit LDL in PBS (−) in the presence of 10 μM CuSO4 at 37° C. for 24 hours. Cell cultures were prepared by inoculating 2.5×10^4 cells/250 μl/well on a 48-well plate using RPMI1640 medium containing 20% FBS. Immediately before addition of test compounds, the medium was replaced with RPMI1640 free from FBS. Test compounds were dissolved or suspended in ethanol and added at 1.25 μl/well 16 hours before or immediately before addition of the oxidized LDL to a concentration of 1, 3 or 10 μM in each well. Unlike Test example 1, the oxidized LDL was not diluted with physiological saline and added to cells at 25 μl/well to a concentration of 91 μg/ml and the cells were incubated for 8 hours after addition of the oxidized LDL. After the incubation, 150 μl of the culture medium was collected from each of the wells and measured for the lactate dehydrogenase activity (Lactate Dehydrogenase (LD-L): SIGMA DIAGNOSTICS) which has leaked in the culture medium.
as §1

[3] = Sus scrofa, LLC-PK1; 0.1 μM; test compounds added 16 hours before addition of oxidized LDL; oxidized LDL 91 μg/ml, 6 hours; read-out: % cytoprotection 1)
[4] = Sus scrofa, LLC-PK1; 0.1 μM; test compounds added immediately before addition of oxidized LDL; oxidized LDL 91 μg/ml, 6 hours; read-out: % cytoprotection 2)
[5] = Sus scrofa, LLC-PK1; 1 μM; test compounds added 16 hours before addition of oxidized LDL; oxidized LDL 91 μg/ml, 6 hours; read-out: % cytoprotection 1)
[6] = Sus scrofa, LLC-PK1; 1 μM; test compounds added immediately before addition of oxidized LDL; oxidized LDL 91 μg/ml, 6 hours; read-out: % cytoprotection 2)
[7] = Sus scrofa, LLC-PK1; 10 μM; test compounds added 16 hours before addition of oxidized LDL; oxidized LDL 91 μg/ml, 6 hours; read-out: % cytoprotection 1)
[8] = Sus scrofa, LLC-PK1; 10 μM; test compounds added immediately before addition of oxidized LDL; oxidized LDL 91 μg/ml, 6 hours; read-out: % cytoprotection 2)
[9] = Rattus norvegicus, Mesangial cell; 1 μM; test compounds added 16 hours before addition of oxidized LDL; oxidized LDL 91 μg/ml, 8 hours; read-out: % cytoprotection 1)
[10] = Rattus norvegicus, Mesangial cell; 1 μM; test compounds added immediately before addition of oxidized LDL; oxidized LDL 91 μg/ml, 8 hours; read-out: % cytoprotection 2)
[11] = Rattus norvegicus, Mesangial cell; 3 μM; test compounds added 16 hours before addition of oxidized LDL; oxidized LDL 91 μg/ml, 8 hours; read-out: % cytoprotection 1)
[12] = Rattus norvegicus, Mesangial cell; 3 μM; test compounds added immediately before addition of oxidized LDL; oxidized LDL 91 μg/ml, 8 hours; read-out: % cytoprotection 2)

Row | SMILES | inhibition at 0.1 µM [1, 3] [%] | inhibition at 0.1 µM [1, 4] [%] | inhibition at 1 µM [1, 5] [%] | inhibition at 1 µM [1, 6] [%] | inhibition at 10 µM [1, 7] [%] | inhibition at 10 µM [1, 8] [%] | inhibition at 1 µM [2, 9] [%] | inhibition at 1 µM [2, 10] [%] | inhibition at 3 µM [2, 11] [%] | inhibition at 3 µM [2, 12] [%]
1 | CC1(C)Cc2c(c(C(C)(C)C)cc(O)c2C(C)(C)C)O1 [Example 4, 4,7-Di-t-butyl-5-hydroxy-2,2-dimethyl-2,3-dihydrobenzofuran] | 11.3 | 14.4 | 100 | 99 | 98.3 | 99.8 | 31.1 ± 5.4 | 32.5 ± 1.9 | 66.4 ± 5.9 | 54.3 ± 9.7
2 | CC(C)(C)c1cc2c(cc1O)CC1(CCCCCC1)O2 [Example 7, 6-t-Butyl-5-hydroxy-2,3-dihydrobenzofuran-2-spiro-1′-cycloheptane] | 19.1 | 14.7 | 104 | 104 | 105 | 105 | 19.3 ± 2.8 | 22 ± 1.9 | 18.1 ± 4.1 | 24.5 ± 0.8
3 | CCCc1c(O)c(C(C)(C)C)cc2c1CC1(CCCCCC1)O2 [Example 9, 6-t-Butyl-5-hydroxy-4-n-propyl-2,3-dihydrobenzofuran-2-spiro-1′-cycloheptane] | 12.9 | 11.5 | 47.7 | 58.9 | 104 | 104 | 14.4 ± 5.1 | 29.6 ± 2 | 56.2 ± 9.3 | 46.3 ± 1.7
4 | CC(C)Cc1c(O)c(C(C)(C)C)cc2c1CC1(CCCCCC1)O2 [Example 11, 6-t-Butyl-5-hydroxy-4-(2-methylpropyl)-2,3-dihydrobenzofuran-2-spiro-1′-cycloheptane] | -2.7 | -20.4 | 53.4 | 88.7 | 102 | 103 | -3.5 ± 9.1 | 4.8 ± 5.1 | 13.8 ± 7.8 | 41.3 ± 1
5 | C=CC(C)c1c(O)c(C(C)(C)C)cc2c1CC1(CCCCCC1)O2 (stereo not shown) [Example 12, 6-t-Butyl-5-hydroxy-4-(1-methyl-2-propenyl)-2,3-dihydrobenzofuran-2-spiro-1′-cycloheptane] | -15.5 | -8.4 | 77.9 | 79.4 | 102 | 102 | 11.8 ± 2.6 | 17.4 ± 4 | 37.9 ± 8.3 | 42.8 ± 3.7
6 | CCC(C)c1c(O)c(C(C)(C)C)cc2c1CC1(CCCCCC1)O2 (stereo not shown) [Example 13, 6-t-Butyl-5-hydroxy-4-(1-methylpropyl)-2,3-dihydrobenzofuran-2-spiro-1′-cycloheptane] | 5.5 | 3.4 | 13.6 | 9.9 | 100 | 100 | 1.7 ± 2.9 | -4.3 ± 5.1 | 18.4 ± 9.2 | 11.1 ± 4.3
7 | Cc1c(O)c(C(C)(C)C)cc2c1CC1(CCCCCC1)O2 [Example 14-(1), 6-t-Butyl-5-hydroxy-4-methyl-2,3-dihydrobenzofuran-2-spiro-1′-cycloheptane] | -6.5 | -9.2 | 103 | 101 | 104 | 103 | 19.7 ± 7.7 | 34.4 ± 1.5 | 59.3 ± 2.1 | 43.2 ± 2.8
8 | CCc1c(O)c(C(C)(C)C)cc2c1CC1(CCCCCC1)O2 [Example 14-(2), 6-t-Butyl-4-ethyl-5-hydroxy-2,3-dihydrobenzofuran-2-spiro-1′-cycloheptane] | -14.3 | -13.9 | 103 | 99.4 | 104 | 105 | 6.6 ± 8.4 | 23.1 ± 1.2 | 52.7 ± 14.3 | 45.6 ± 1.8
9 | CC(C)(C)c1cc2c(cc1O)CCO2 [Example 15, 6-t-Butyl-5-hydroxy-2,3-dihydrobenzofuran] |  |  |  |  |  |  | -4 ± 3.5 | -14.6 ± 3.3 | 33.6 ± 11.5 | 5.4 ± 5.1
10 | CC1Cc2cc(O)c(C(C)(C)C)cc2O1 (stereo not shown) [Example 16, 6-t-Butyl-5-hydroxy-2-methyl-2,3-dihydrobenzofuran] | 12.7 | 7.6 | 99.7 | 90.8 | 103 | 103 | 50.6 ± 5.9 | 18.7 ± 1.3 | 45.3 ± 9.4 | 28.3 ± 6.2
11 | CCC1(CC)Cc2c(cc(C(C)C)c(O)c2C(C)C)O1 [Example 17, 2,2-Diethyl-5-hydroxy-4,6-diisopropyl-2,3-dihydrobenzofuran] | 40.5 | 22.1 | 99.9 | 101 | 99.9 | 98.4 |  |  |  | 
12 | CC(C)c1cc2c(c(C(C)C)c1O)CC(C)(C)O2 [Example 18, 5-Hydroxy-2,2-dimethyl-4,6-diisopropyl-2,3-dihydrobenzofuran] | 12.1 | -1.9 | 100 | 99.7 | 100 | 101 |  |  |  | 
13 | Cc1c(O)c(C(C)(C)C)cc2c1CC(C)(C)O2 [Example 19, 6-t-Butyl-5-hydroxy-2,2,4-trimethyl-2,3-dihydrobenzofuran] | 31.1 | 13.2 | 104 | 102 | 102 | 102 |  |  |  | 
14 | CC(C)c1c(O)c(C(C)(C)C)cc2c1CC(C)(C)O2 [Example 20-(1), 6-t-Butyl-5-hydroxy-2,2-dimethyl-4-isopropyl-2,3-dihydrobenzofuran] | -4.8 | -24 | 100 | 100 | 104 | 100 |  |  |  | 
15 | CC(C)c1cc2c(c(C(C)(C)C)c1O)CC(C)(C)O2 [Example 20-(2), 4-t-Butyl-5-hydroxy-2,2-dimethyl-6-isopropyl-2,3-dihydrobenzofuran] | 95.3 | 61.9 | 98.1 | 97.8 | 97.3 | 99.1 |  |  |  | 
